Results from patent publication US20230365592A1 (Agios Pharmaceuticals, Inc., priority 2022, published 2023).
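Further: after compound treatment, cells received sepiapterin plus isotope-labelled Phenylalanine for 4 hours, then labelled Tyrosine in the medium was quantified, 10-point 2-fold dilution series run in duplicate.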

Each compound was assayed against T1, human PAH with the R408W mutation (Homo sapiens, UniProt P00439, R408W) (assay: Cell Based Phenylalanine Flux Assay). Conditions: A375 cells expressing human PAH R408W; 24 hrs compound incubation; 13C-Tyrosine by LC-MS; average where tested multiple times; read-out: AC50.
T1 construct: expressed in transfected cells
T1 sequence (P00439 1-452 R408W): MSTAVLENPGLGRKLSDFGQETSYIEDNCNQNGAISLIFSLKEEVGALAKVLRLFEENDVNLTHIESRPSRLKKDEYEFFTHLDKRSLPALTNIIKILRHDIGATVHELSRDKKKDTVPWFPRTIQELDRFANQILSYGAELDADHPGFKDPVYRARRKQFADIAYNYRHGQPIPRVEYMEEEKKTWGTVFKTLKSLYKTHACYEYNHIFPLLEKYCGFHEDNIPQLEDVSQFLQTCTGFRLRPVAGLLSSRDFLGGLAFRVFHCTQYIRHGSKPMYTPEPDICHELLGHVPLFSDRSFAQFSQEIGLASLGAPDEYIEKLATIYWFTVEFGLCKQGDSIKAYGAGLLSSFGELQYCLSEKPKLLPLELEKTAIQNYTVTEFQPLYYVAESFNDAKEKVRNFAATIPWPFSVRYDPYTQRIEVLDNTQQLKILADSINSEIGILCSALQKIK
An AC50 of 500 to 1000 nM was found for `Cc1cccn2nc([C@@H]3c4nc[nH]c4CCN3c3nnc(C(C)(C)C)o3)cc12` [Example 1799, (S)-2-(tert-butyl)-5-(4-(4-methylpyrazolo[1,5-a]pyridin-2-yl)-6,7-dihydro-1H-imidazo[4,5-c]pyridin-5(4H)-yl)-1,3,4-oxadiazole] in this work. In the case of `FC(F)(F)c1cnc(N2CCc3[nH]cnc3[C@H]2c2cc3cccc(Cl)n3n2)nc1` [Example 1800, (S)-4-(7-chloropyrazolo[1,5-a]pyridin-2-yl)-5-(5-(trifluoromethyl)pyrimidin-2-yl)-4,5,6,7-tetrahydro-1H-imidazo[4,5-c]pyridine], the AC50 is reported as < 500 nM. `Cc1cccc2cc([C@H]3c4nc[nH]c4CCN3c3ncc(C(F)(F)F)cn3)nn12` [Example 1803, (R)-4-(7-methylpyrazolo[1,5-a]pyridin-2-yl)-5-(5-(trifluoromethyl)pyrimidin-2-yl)-4,5,6,7-tetrahydro-1H-imidazo[4,5-c]pyridine] was tested, and the AC50 was > 5000 nM. An AC50 of 1000 to 5000 nM was found for `Cc1cccn2nc([C@H]3c4nc[nH]c4CCN3c3cnccn3)cc12` [Example 1804, (R)-4-(4-methylpyrazolo[1,5-a]pyridin-2-yl)-5-(pyrazin-2-yl)-4,5,6,7-tetrahydro-1H-imidazo[4,5-c]pyridine] in this work. With `Cc1cccn2nc([C@@H]3c4nc[nH]c4CCN3c3cnccn3)cc12` [Example 1805, (S)-4-(4-methylpyrazolo[1,5-a]pyridin-2-yl)-5-(pyrazin-2-yl)-4,5,6,7-tetrahydro-1H-imidazo[4,5-c]pyridine] the AC50 was < 500 nM. An AC50 of 500 to 1000 nM was found for `FC(F)(F)c1nnc(N2CCc3[nH]cnc3[C@H]2c2cc3ccccn3n2)o1` [Example 1807, (S)-2-(4-(pyrazolo[1,5-a]pyridin-2-yl)-6,7-dihydro-1H-imidazo[4,5-c]pyridin-5(4H)-yl)-5-(trifluoromethyl)-1,3,4-oxadiazole] in this work. For `Cc1cccn2nc([C@@H]3c4nc[nH]c4CCN3c3nnc(C(F)(F)F)o3)cc12` [Example 1809, (S)-2-(4-(4-methylpyrazolo[1,5-a]pyridin-2-yl)-6,7-dihydro-1H-imidazo[4,5-c]pyridin-5(4H)-yl)-5-(trifluoromethyl)-1,3,4-oxadiazole], the AC50 was < 500 nM. An AC50 of 500 to 1000 nM was found for `FC(F)(F)c1cnc(N2CCc3[nH]cnc3[C@H]2c2cc3cccc(C(F)(F)F)n3n2)nc1` [Example 1810, (S)-4-(7-(trifluoromethyl)pyrazolo[1,5-a]pyridin-2-yl)-5-(5-(trifluoromethyl)pyrimidin-2-yl)-4,5,6,7-tetrahydro-1H-imidazo[4,5-c]pyridine] in this work. An AC50 of 500 to 1000 nM was found for `FC(F)c1cccc2cc([C@@H]3c4nc[nH]c4CCN3c3ncc(C(F)(F)F)cn3)nn12` [Example 1812, (S)-4-(7-(difluoromethyl)pyrazolo[1,5-a]pyridin-2-yl)-5-(5-(trifluoromethyl)pyrimidin-2-yl)-4,5,6,7-tetrahydro-1H-imidazo[4,5-c]pyridine] in this work. For `c1ccc(N2CCc3[nH]cnc3[C@H]2c2cc3ccccn3n2)nc1` [Example 1814, (S)-4-(pyrazolo[1,5-a]pyridin-2-yl)-5-(pyridin-2-yl)-4,5,6,7-tetrahydro-1H-imidazo[4,5-c]pyridine], the AC50 was < 500 nM. `c1ccc(N2CCc3[nH]cnc3[C@@H]2c2cc3ccccn3n2)nc1` [Example 1815, (R)-4-(pyrazolo[1,5-a]pyridin-2-yl)-5-(pyridin-2-yl)-4,5,6,7-tetrahydro-1H-imidazo[4,5-c]pyridine] was tested, and the AC50 was > 5000 nM. In the case of `FC(F)c1cccn2nc([C@H]3c4nc[nH]c4CCN3c3cnccn3)cc12` [Example 1816, (R)-4-(4-(difluoromethyl)pyrazolo[1,5-a]pyridin-2-yl)-5-(pyrazin-2-yl)-4,5,6,7-tetrahydro-1H-imidazo[4,5-c]pyridine], the AC50 is reported as > 5000 nM. In the case of `FC(F)c1cccn2nc([C@@H]3c4nc[nH]c4CCN3c3cnccn3)cc12` [Example 1817, (S)-4-(4-(difluoromethyl)pyrazolo[1,5-a]pyridin-2-yl)-5-(pyrazin-2-yl)-4,5,6,7-tetrahydro-1H-imidazo[4,5-c]pyridine], the AC50 is reported as < 500 nM. In the case of `FC(F)(F)c1cccn2nc([C@H]3c4nc[nH]c4CCN3c3cnccn3)cc12` [Example 1818, (R)-5-(pyrazin-2-yl)-4-(4-(trifluoromethyl)pyrazolo[1,5-a]pyridin-2-yl)-4,5,6,7-tetrahydro-1H-imidazo[4,5-c]pyridine], the AC50 is reported as > 5000 nM. In the case of `FC(F)(F)c1cccn2nc([C@@H]3c4nc[nH]c4CCN3c3cnccn3)cc12` [Example 1819, (S)-5-(pyrazin-2-yl)-4-(4-(trifluoromethyl)pyrazolo[1,5-a]pyridin-2-yl)-4,5,6,7-tetrahydro-1H-imidazo[4,5-c]pyridine], the AC50 is reported as < 500 nM. With `FC(F)(F)c1nnc(N2CCc3[nH]cnc3[C@@H]2c2cc3c(C(F)(F)F)cccn3n2)o1` [Example 1820, (R)-2-(trifluoromethyl)-5-(4-(4-(trifluoromethyl)pyrazolo[1,5-a]pyridin-2-yl)-6,7-dihydro-1H-imidazo[4,5-c]pyridin-5(4H)-yl)-1,3,4-oxadiazole] the AC50 was > 5000 nM. With `FC(F)(F)c1nnc(N2CCc3[nH]cnc3[C@H]2c2cc3c(C(F)(F)F)cccn3n2)o1` [Example 1821, (S)-2-(trifluoromethyl)-5-(4-(4-(trifluoromethyl)pyrazolo[1,5-a]pyridin-2-yl)-6,7-dihydro-1H-imidazo[4,5-c]pyridin-5(4H)-yl)-1,3,4-oxadiazole] the AC50 was < 500 nM. An AC50 of 500 to 1000 nM was found for `CC(C)(C)c1nnc(N2CCc3[nH]cnc3[C@H]2c2cc3c(C(F)F)cccn3n2)o1` [Example 1825, (S)-2-(tert-butyl)-5-(4-(4-(difluoromethyl)pyrazolo[1,5-a]pyridin-2-yl)-6,7-dihydro-1H-imidazo[4,5-c]pyridin-5(4H)-yl)-1,3,4-oxadiazole] in this work.

Same assay, conditions: A375 cells expressing human R408W PAH; 24 hrs compound incubation; 13C-Tyrosine by LC-MS; average where tested multiple times; read-out: AC50
An AC50 of 1000 to 5000 nM was found for `Cc1ccc2c(C(=O)N3CCc4[nH]cnc4[C@@H]3c3cc4cccc(F)n4n3)cnn2c1` [Example 1787, (R)-(4-(7-fluoropyrazolo[1,5-a]pyridin-2-yl)-6,7-dihydro-1H-imidazo[4,5-c]pyridin-5(4H)-yl)(6-methylpyrazolo[1,5-a]pyridin-3-yl)methanone] in this work. An AC50 of 500 to 1000 nM was found for `COc1cccn2nc([C@@H]3c4nc[nH]c4CCN3C(=O)c3cnn4cc(C5CC5)ccc34)cc12` [Example 1788, (S)-(6-cyclopropylpyrazolo[1,5-a]pyridin-3-yl)(4-(4-methoxypyrazolo[1,5-a]pyridin-2-yl)-6,7-dihydro-1H-imidazo[4,5-c]pyridin-5(4H)-yl)methanone] in this work. With `COc1cccn2nc([C@H]3c4nc[nH]c4CCN3C(=O)c3cnn4cc(C5CC5)ccc34)cc12` [Example 1789, (R)-(6-cyclopropylpyrazolo[1,5-a]pyridin-3-yl)(4-(4-methoxypyrazolo[1,5-a]pyridin-2-yl)-6,7-dihydro-1H-imidazo[4,5-c]pyridin-5(4H)-yl)methanone] the AC50 was > 5000 nM. An AC50 of 500 to 1000 nM was found for `O=C(c1cnn2cc(C3CC3)ccc12)N1CCc2[nH]cnc2[C@H]1c1cc2cccc(F)n2n1` [Example 1790, (S)-(6-cyclopropylpyrazolo[1,5-a]pyridin-3-yl)(4-(7-fluoropyrazolo[1,5-a]pyridin-2-yl)-6,7-dihydro-1H-imidazo[4,5-c]pyridin-5(4H)-yl)methanone] in this work. `O=C(c1cnn2cc(C3CC3)ccc12)N1CCc2[nH]cnc2[C@@H]1c1cc2cccc(F)n2n1` [Example 1791, (R)-(6-cyclopropylpyrazolo[1,5-a]pyridin-3-yl)(4-(7-fluoropyrazolo[1,5-a]pyridin-2-yl)-6,7-dihydro-1H-imidazo[4,5-c]pyridin-5(4H)-yl)methanone] was tested, and the AC50 was > 5000 nM. `CN(C)c1ccc2c(C(=O)N3CCc4[nH]cnc4[C@H]3c3cc4c(Cl)cccn4n3)cnn2c1` [Example 1792, (S)-(4-(4-chloropyrazolo[1,5-a]pyridin-2-yl)-6,7-dihydro-1H-imidazo[4,5-c]pyridin-5(4H)-yl)(6-(dimethylamino)pyrazolo[1,5-a]pyridin-3-yl)methanone] was tested, and the AC50 was < 500 nM. An AC50 of 500 to 1000 nM was found for `Cc1cccc2cc([C@@H]3c4nc[nH]c4CCN3C(=O)c3cnn4cc(N(C)C)ccc34)nn12` [Example 1794, (S)-(6-(dimethylamino)pyrazolo[1,5-a]pyridin-3-yl)(4-(7-methylpyrazolo[1,5-a]pyridin-2-yl)-6,7-dihydro-1H-imidazo[4,5-c]pyridin-5(4H)-yl)methanone] in this work. With `Cc1cccc2cc([C@H]3c4nc[nH]c4CCN3C(=O)c3cnn4cc(N(C)C)ccc34)nn12` [Example 1795, (R)-(6-(dimethylamino)pyrazolo[1,5-a]pyridin-3-yl)(4-(7-methylpyrazolo[1,5-a]pyridin-2-yl)-6,7-dihydro-1H-imidazo[4,5-c]pyridin-5(4H)-yl)methanone] the AC50 was > 5000 nM. An AC50 of 500 to 1000 nM was found for `COCCc1ccc2c(C(=O)N3CCc4[nH]cnc4[C@H]3c3cc4c(F)cccn4n3)cnn2c1` [Example 1796, (S)-(4-(4-fluoropyrazolo[1,5-a]pyridin-2-yl)-6,7-dihydro-1H-imidazo[4,5-c]pyridin-5(4H)-yl)(6-(2-methoxyethyl)pyrazolo[1,5-a]pyridin-3-yl)methanone] in this work. For `Cc1cccn2nc([C@H]3c4nc[nH]c4CCN3c3nnc(C(C)(C)C)o3)cc12` [Example 1798, (R)-2-(tert-butyl)-5-(4-(4-methylpyrazolo[1,5-a]pyridin-2-yl)-6,7-dihydro-1H-imidazo[4,5-c]pyridin-5(4H)-yl)-1,3,4-oxadiazole], the AC50 was > 5000 nM.
